Reference: US12509431B2, “1,4-dihydroquinazolinone compounds and uses thereof” (Edgewise Therapeutics, Inc., priority 2022, dated 2025)

Key:
Assay type in all cases: biochemical
Details in all cases: Table 8
[1] = target: T1, Porcine Ventricle myofibrils (left ventricle of Yucatan minipigs) (Sus scrofa, UniProt P79293); assay: Myofibril ATPase assay (PK/LDH NADH-coupled), ventricle myofibrils
T1 construct: Myofibrils from porcine cardiac muscle was isolated from the left ventricle of Yucatan minipigs; tissue Exemplar Genetics; host or cells: left ventricle of Yucatan minipigs
T1 sequence (P79293 whole entry): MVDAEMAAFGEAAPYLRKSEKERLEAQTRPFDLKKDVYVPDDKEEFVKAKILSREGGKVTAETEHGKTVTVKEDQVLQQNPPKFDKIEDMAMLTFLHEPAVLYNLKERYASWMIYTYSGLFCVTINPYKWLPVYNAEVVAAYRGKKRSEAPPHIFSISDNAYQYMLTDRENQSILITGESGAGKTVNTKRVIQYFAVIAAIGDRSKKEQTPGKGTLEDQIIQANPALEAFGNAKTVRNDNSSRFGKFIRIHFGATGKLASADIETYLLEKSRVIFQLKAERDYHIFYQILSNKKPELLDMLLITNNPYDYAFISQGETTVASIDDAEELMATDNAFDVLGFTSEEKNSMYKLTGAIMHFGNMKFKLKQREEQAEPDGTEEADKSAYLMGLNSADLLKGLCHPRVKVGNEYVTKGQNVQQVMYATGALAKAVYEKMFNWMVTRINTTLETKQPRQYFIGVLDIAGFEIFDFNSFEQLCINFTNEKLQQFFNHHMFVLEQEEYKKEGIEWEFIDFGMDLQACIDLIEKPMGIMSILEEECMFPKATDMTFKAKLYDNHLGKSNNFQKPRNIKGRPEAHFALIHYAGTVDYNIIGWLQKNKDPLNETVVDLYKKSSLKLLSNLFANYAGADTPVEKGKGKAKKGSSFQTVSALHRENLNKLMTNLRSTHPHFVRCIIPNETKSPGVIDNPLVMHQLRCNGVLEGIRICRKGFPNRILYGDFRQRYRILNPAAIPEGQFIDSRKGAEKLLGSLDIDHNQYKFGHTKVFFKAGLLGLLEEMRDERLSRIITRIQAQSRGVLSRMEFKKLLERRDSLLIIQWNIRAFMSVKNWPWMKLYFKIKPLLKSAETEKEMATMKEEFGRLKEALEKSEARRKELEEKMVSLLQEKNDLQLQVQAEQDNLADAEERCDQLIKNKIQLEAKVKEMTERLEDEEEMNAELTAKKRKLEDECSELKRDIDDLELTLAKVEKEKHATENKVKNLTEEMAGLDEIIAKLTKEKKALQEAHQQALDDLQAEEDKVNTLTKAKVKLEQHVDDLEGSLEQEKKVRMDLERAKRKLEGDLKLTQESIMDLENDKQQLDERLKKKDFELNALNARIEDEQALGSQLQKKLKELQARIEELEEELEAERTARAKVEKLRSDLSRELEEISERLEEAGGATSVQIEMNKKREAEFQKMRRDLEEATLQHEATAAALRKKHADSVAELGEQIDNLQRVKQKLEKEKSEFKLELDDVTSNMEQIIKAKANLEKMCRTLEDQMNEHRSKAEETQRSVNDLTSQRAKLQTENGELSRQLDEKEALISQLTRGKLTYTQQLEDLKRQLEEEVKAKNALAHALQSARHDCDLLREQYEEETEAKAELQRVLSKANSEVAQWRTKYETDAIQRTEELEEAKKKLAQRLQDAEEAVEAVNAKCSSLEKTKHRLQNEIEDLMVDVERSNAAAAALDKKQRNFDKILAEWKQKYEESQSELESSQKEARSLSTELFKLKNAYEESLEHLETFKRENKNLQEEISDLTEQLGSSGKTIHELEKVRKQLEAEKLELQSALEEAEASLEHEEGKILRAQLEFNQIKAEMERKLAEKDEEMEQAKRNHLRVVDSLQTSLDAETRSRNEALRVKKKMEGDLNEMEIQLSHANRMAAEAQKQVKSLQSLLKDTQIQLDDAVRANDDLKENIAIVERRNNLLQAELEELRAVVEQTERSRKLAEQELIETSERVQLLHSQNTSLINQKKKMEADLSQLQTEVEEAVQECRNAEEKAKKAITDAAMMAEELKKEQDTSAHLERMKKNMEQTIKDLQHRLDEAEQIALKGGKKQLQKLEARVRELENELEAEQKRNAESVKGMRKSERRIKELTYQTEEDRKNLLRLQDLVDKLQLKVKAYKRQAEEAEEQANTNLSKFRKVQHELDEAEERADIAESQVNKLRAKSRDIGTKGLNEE
Outline: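 Yucatan minipig left-ventricle myofibrils; ATPase measured by PK/LDH-coupled NADH loss at 340 nm, read every 1.5-2 min for 75 min. Slopes normalized to vehicle (100%) and fit to 4-parameter logistic model; EC25 and, for inhibitors, EC50 calculated.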

Porcine Atria myofibrils = assay: Myofibril ATPase assay (PK/LDH NADH-coupled), atria myofibrils
Outline: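 Porcine atrial myofibril ATPase followed via PK/LDH-coupled NADH depletion, absorbance at 340 nm read every 1.5-2 min over 75 min. Slopes (mAU/min) normalized to vehicle as 100% and fit to a 4-parameter logistic; EC25% derived, plus EC50% for inhibitors.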

[2] = system: Rabbit Skeletal myofibrils (rabbit psoas muscle); assay: Myofibril ATPase assay (PK/LDH NADH-coupled), skeletal myofibrils
Outline: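 Rabbit psoas myofibrils in pCa (PIPES/CaCl2/EGTA, pH 7.0) buffer; ADP coupled via PK/LDH to NADH loss, read at 340 nm every 1.5–2 min for 75 min. Slopes normalized to vehicle (100%) and fit to 4-parameter logistic for EC25, plus EC50 for inhibitors.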

Porcine Ventricle IC25 [1] [µM] | Porcine Atria IC25 (Porcine Atria myofibrils) [µM] | Rabbit Psoas IC25 [2] [µM] | SMILES
100 | 100.00 | 100 | C[C@@H](NC(=O)CN1Cc2cc(C#N)ccc2NC1=O)c1ncc(C#N)cc1F [Compound B143]
47.42 | 0.72 | 2.787 | C[C@H](NC(=O)CN1Cc2cc(C#N)ccc2NC1=O)c1ncc(C#N)cc1F [Compound B144, 2-(6-cyano-2-oxo-1,4-dihydroquinazolin-3-yl)-N-[(1S)-1-(5-cyano-3-fluoropyridin-2-yl)ethyl]acetamide]
68.33 | 1.52 | 5.163 | O=C(CN1Cc2cc(F)ccc2NC1=O)N[C@H]1COc2cc(F)cc(F)c21 [Compound B146]
5.833 | 0.85 | 0.4985 | O=C(CN1Cc2c(ccc(F)c2F)NC1=O)N[C@H]1COc2cc(F)cc(F)c21 [Compound B148]
100 | 73.55 | 0.1803 | C[C@@H](NC(=O)CN1C(=O)Nc2ccc(C#N)cc2C12CC2)c1ncc(F)cc1F [Compound B149]
22.65 | 0.98 | 100 | C[C@H](NC(=O)CN1C(=O)Nc2ccc(C#N)cc2C12CC2)c1ncc(F)cc1F [Compound B150]
100 | 16.33 | 0.5161 | C[C@@H](NC(=O)CN1Cc2c(C#N)cccc2NC1=O)c1ncc(F)cc1F [Compound B153]
2.518 | 0.18 | 0.0315 | C[C@H](NC(=O)CN1Cc2c(C#N)cccc2NC1=O)c1ncc(F)cc1F [Compound B154]
3.17 | 0.43 | 0.0851 | C[C@H](NC(=O)CN1C(=O)Nc2ccccc2[C@H]1C)c1ccc(F)cc1F [Compound B155]
10.58 | 4.12 | 0.232 | C[C@H](NC(=O)CN1C(=O)Nc2ccccc2[C@H]1C)c1ccc(F)cc1F [Compound B156]
100 | 5.96 | 100 | CC(NC(=O)CN1Cc2cc(C#N)ccc2NC1=O)c1ncc(C#N)cc1F (stereo not drawn) [Compound B157]
100 | 100.00 | 18.11 | C[C@@H]1c2ccccc2NC(=O)N1CC(=O)N[C@H](C)c1ncc(F)cc1F [Compound B158]
100 | 100.00 | 100 | C[C@@H](NC(=O)CN1C(=O)Nc2ccccc2[C@@H]1C)c1ncc(F)cc1F [Compound B159]
4.311 | 0.36 | 0.3154 | C[C@H](NC(=O)CN1Cc2c(ccc(C#N)c2F)NC1=O)c1ccc(F)cc1F [Compound B160, 2-(6-Cyano-5-fluoro-2-oxo-1,4-dihydroquinazolin-3-yl)-N-[(1S)-1-(2,4-difluorophenyl)ethyl]acetamide]
45.8 | 4.15 | 1.295 | C[C@H](NC(=O)CN1C(=O)Nc2ccccc2[C@H]1C)c1ncc(F)cc1F [Compound B161]
100 | 52.14 | 0.7039 | C[C@H](NC(=O)CN1C(=O)Nc2ccccc2[C@@H]1C)c1ncc(F)cc1F [Compound B162]
31.68 | 2.08 | 0.4728 | C[C@@H](NC(=O)CN1C(=O)Nc2ccc(F)cc2C12CC2)c1ncc(F)cc1F [Compound B163]
0.3444 | 0.10 | 0.0273 | C[C@H](NC(=O)CN1C(=O)Nc2ccc(F)cc2C12CC2)c1ncc(F)cc1F [Compound B164]

Porcine Ventricle IC25 [1] [µM] | Porcine Atria IC25 (Porcine Atria myofibrils) [µM] | Rabbit Psoas IC25 [2] [µM] | SMILES
100 | 17.36 | 100 | C[C@@H]1c2ccccc2NC(=O)N1CC(=O)N[C@@H](CO)c1ncc(F)cc1F [Compound B165]
100 | 51.60 | 6.966 | C[C@H]1c2ccccc2NC(=O)N1CC(=O)N[C@@H](CO)c1ncc(F)cc1F [Compound B166]
100 | 100.00 | 100 | C[C@@H](C(=O)N[C@H](CO)c1ncc(F)cc1F)N1Cc2c(Cl)cccc2NC1=O [Compound B167]
100 | 100.00 | 100 | C[C@H](C(=O)N[C@H](CO)c1ncc(F)cc1F)N1Cc2c(Cl)cccc2NC1=O [Compound B168]
1.354 | 0.15 | 0.3955 | C[C@@H](C(=O)N[C@@H](CO)c1ncc(F)cc1F)N1Cc2c(Cl)cccc2NC1=O [Compound B169]
31.8 | 2.85 | 9.578 | C[C@H](C(=O)N[C@@H](CO)c1ncc(F)cc1F)N1Cc2c(Cl)cccc2NC1=O [Compound B170]
100 | 19.79 | 7.545 | C[C@@H](NC(=O)CN1Cc2cc(F)ccc2NC1=O)c1ccc(C#N)cn1 [Compound B171]
100 | 100.00 | 100 | C[C@@H](NC(=O)CN1Cc2cc(F)ccc2NC1=O)c1ncccc1F [Compound B173]
100 | 46.54 | 83 | C[C@H](NC(=O)CN1Cc2cc(F)ccc2NC1=O)c1ncccc1F [Compound B174]
100 | 100.00 | 100 | O=C(CN1Cc2c(ccc(F)c2F)NC1=O)N[C@H](CO)c1ncc(F)cc1F [Compound B175]
0.3872 | 0.06 | 0.08998 | O=C(CN1Cc2c(ccc(F)c2F)NC1=O)N[C@@H](CO)c1ncc(F)cc1F [Compound B176]
100 | 100.00 | 68.51 | C[C@@H](NC(=O)CN1Cc2cc(F)ccc2NC1=O)c1ccc(F)cc1F [Compound B177]
100 | 3.48 | 3.38 | COc1cnc([C@@H](C)NC(=O)CN2Cc3cc(F)ccc3NC2=O)c(F)c1 [Compound B178]
100 | 100.00 | 100 | O=C(CN1Cc2cc(F)ccc2NC1=O)N[C@H](CO)c1ncc(F)cc1F [Compound B180]
100 | 2.28 | 1.159 | Cc1cccnc1[C@@H](C)NC(=O)CN1Cc2c(ccc(F)c2F)NC1=O [Compound B182]
100 | 100.00 | 100 | Cc1cccnc1[C@H](C)NC(=O)CN1Cc2c(ccc(F)c2F)NC1=O [Compound B183]
56.86 | 57.48 | 100 | COc1cccnc1[C@@H](C)NC(=O)CN1Cc2c(ccc(F)c2F)NC1=O [Compound B184]
100 | 100.00 | 100 | COc1cccnc1[C@H](C)NC(=O)CN1Cc2c(ccc(F)c2F)NC1=O [Compound B185]
